Experimental data from paper PMC5919610, “Structural basis of product inhibition by arabinose and xylose of the thermostable GH43 β-1,4-xylosidase from Geobacillus thermoleovorans IT-08” (PLoS ONE, 2018).

Target: T1, Xyl (GH43 β-1,4-xylosidase from Geobacillus thermoleovorans IT-08) (Geobacillus thermoleovorans, UniProt Q2I2N4)
T1 construct: complete Xyl (511 residues; 61,533 Da); E. coli BL21 (DE3), plasmid pET-xyl; one molecule per asymmetric unit, probably dimer in solution (PISA)
T1 sequence (Q2I2N4 1-511): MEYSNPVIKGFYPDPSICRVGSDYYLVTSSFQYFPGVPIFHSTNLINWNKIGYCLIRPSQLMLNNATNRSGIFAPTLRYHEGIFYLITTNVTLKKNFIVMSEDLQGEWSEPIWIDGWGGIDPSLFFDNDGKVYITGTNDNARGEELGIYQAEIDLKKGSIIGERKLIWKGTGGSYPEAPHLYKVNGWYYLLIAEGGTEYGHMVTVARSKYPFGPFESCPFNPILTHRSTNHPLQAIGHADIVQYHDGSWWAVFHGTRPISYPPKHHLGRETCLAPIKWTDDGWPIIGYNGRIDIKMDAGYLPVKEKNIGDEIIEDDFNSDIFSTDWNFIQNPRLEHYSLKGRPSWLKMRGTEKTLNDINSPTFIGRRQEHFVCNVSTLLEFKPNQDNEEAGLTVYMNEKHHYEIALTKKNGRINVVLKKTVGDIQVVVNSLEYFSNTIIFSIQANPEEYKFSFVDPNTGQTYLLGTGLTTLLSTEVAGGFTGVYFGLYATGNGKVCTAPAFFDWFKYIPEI
Assay: X-ray crystal structure of soaked crystal
Type: binding
Settings: 500 mM L-arabinose soak, 10 min, pH 7.0, 283 K; 2.10 Å; active site subsite -1; same site in ternary complex with D-xylose (5Z5I, 1.70 Å)

X-ray crystal structure of soaked crystal: arabinose was only found in subsite -1
SMILES: OC[C@@H]1O[C@H](O)[C@H](O)[C@H]1O [L-arabinose]
